Read-outs that look alike come from different tables or passages of the source. One block for each molecule: values may come before it.
How the values were obtained:
human 5-HT6 receptor = human 5-HT6 receptor (Homo sapiens (Human), UniProt P50406); assay: 5-HT6 radioligand binding assay (SPA format, [N-methyl-3H]-LSD)
In short: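 Human 5-HT6 receptor membranes were incubated overnight at room temperature with 10 nM [N-methyl-3H]-LSD and competitor in 50 mM Tris-HCl pH 7.5, 5 mM MgCl2, 1 mM EDTA, 4% DMSO, read by SPA. Nonspecific binding was defined with 100 μM 5-HT. IC50 came from ten-point duplicate curves; Ki via Cheng-Prusoff.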

[1] = human 5-HT6 receptor membranes, 10 nM [N-methyl-3H]-LSD, Ki by Cheng-Prusoff, read-out: human 5HT6 Ki
[2] = human 5-HT6 receptor membranes, 10 nM [N-methyl-3H]-LSD, Ki by Cheng-Prusoff, hydrochloride, read-out: human 5HT6 Ki

Sequence of human 5-HT6 receptor (P50406 whole entry): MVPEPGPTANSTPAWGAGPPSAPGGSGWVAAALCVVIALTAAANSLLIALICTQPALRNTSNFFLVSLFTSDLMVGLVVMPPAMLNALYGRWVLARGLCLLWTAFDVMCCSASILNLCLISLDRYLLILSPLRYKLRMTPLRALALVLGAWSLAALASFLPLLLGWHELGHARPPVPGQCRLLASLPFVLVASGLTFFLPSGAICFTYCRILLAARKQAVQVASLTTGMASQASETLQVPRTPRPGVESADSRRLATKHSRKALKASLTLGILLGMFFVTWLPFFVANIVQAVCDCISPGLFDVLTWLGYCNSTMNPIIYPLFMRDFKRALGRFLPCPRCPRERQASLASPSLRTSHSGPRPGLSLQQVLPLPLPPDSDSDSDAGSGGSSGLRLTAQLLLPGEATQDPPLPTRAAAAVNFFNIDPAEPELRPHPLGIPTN

Structure (SMILES): Cl.O=S(=O)(c1cccc(F)c1)c1ccc2oc3c(c2c1)CNCC3 [Example 29, 8-(3-Fluorophenylsulfonyl)-1,2,3,4-tetrahydrobenzofuro[3,2-c]pyridine hydrochloride]
Ki (human 5-HT6 receptor; [1]): 16 nM
melting point: 262 to 272 °C (dec.)

Structure (SMILES): Cl.O=S(=O)(c1ccccc1)c1cc(Cl)c2oc3c(c2c1)C(CO)NCC3 (stereo not shown) [Example 85, (6-chloro-8-(phenylsulfonyl)-1,2,3,4-tetrahydrobenzofuro[3,2-c]pyridin-1-yl)methanol hydrochloride]
Ki (human 5-HT6 receptor; [1]): 1.6 nM
melting point: 185 to 187 °C

Structure (SMILES): Cl.O=S(=O)(c1ccccc1)c1ccc2c3c(oc2c1)CCCNC3 [Example 68, 8-(Phenylsulfonyl)-2,3,4,5-tetrahydro-1H-benzofuro[3,2-c]azepine hydrochloride]
Ki (human 5-HT6 receptor; [1]): 132 nM
melting point: 221 to 225 °C

Structure (SMILES): CC(O)Cc1cc(S(=O)(=O)c2ccccc2)cc2c3c(oc12)CCNC3.Cl (stereo not shown) [Example 80, 1-(8-(phenylsulfonyl)-1,2,3,4-tetrahydrobenzofuro[3,2-c]pyridin-6-yl)propan-2-ol hydrochloride]
Ki (human 5-HT6 receptor; [1]): 19 nM
melting point: 283 to 284 °C

Structure (SMILES): Cl.O=S(=O)(c1cccc(Cl)c1)c1ccc2oc3c(c2c1)CNCC3 [Example 30, 8-(3-Chlorophenylsulfonyl)-1,2,3,4-tetrahydrobenzofuro[3,2-c]pyridine hydrochloride]
Ki (human 5-HT6 receptor; [1]): 6.2 nM
melting point: 245 to 252 °C (dec.)

Structure (SMILES): Cl.[O-][S+](c1ccccc1)c1cc(Cl)c2oc3c(c2c1)CNCC3 (stereo not shown) [Example 93, 6-chloro-8-(phenylsulfinyl)-1,2,3,4-tetrahydrobenzofuro[3,2-c]pyridine hydrochloride]
Ki (human 5-HT6 receptor; [2]): 10 nM
melting point: 264 to 272 °C (dec.)

Structure (SMILES): Cl.O=S(=O)(c1cccc(F)c1)c1ccc2oc3c(c2c1)C1CCC(C3)N1 (stereo not shown) [Example 57, 2-(3-Fluorophenyl)sulfonyl-6,7,8,9,10-pentahydro-7,10-epiminocyclohepta[b]benzofuran hydrochloride]
Ki (human 5-HT6 receptor; [1]): 133 nM
melting point: 200 to 210 °C

Structure (SMILES): Cl.Clc1cc(Sc2ccccc2)cc2c3c(oc12)CCNC3 [Example 91, 6-chloro-8-(phenylthio)-1,2,3,4-tetrahydrobenzofuro[3,2-c]pyridine hydrochloride]
Ki (human 5-HT6 receptor; [1]): 12 nM
melting point: 241 to 248 °C (dec.)

Structure (SMILES): Cl.O=S(=O)(c1ccccc1)c1cc(Cl)c2oc3c(c2c1)CNCC3 [Example 44, 6-Chloro-8-(phenylsulfonyl)-1,2,3,4-tetrahydrobenzofuro[3,2-c]pyridine hydrochloride]
Ki (human 5-HT6 receptor; [1]): 0.55 nM
melting point: 290 to 294 °C

Structure (SMILES): Cl.Cn1cc(S(=O)(=O)c2cc(Cl)c3oc4c(c3c2)CNCC4)c2ccccc21 [Example 50, 6-Chloro-8-(1-methyl-1H-indol-3-ylsulfonyl)-1,2,3,4-tetrahydrobenzofuro[3,2-c]pyridine]
Ki (human 5-HT6 receptor; [1]): 0.17 nM
melting point: 262 to 264 °C

Structure (SMILES): Cl.O=S(=O)(c1cccc(C(F)(F)F)c1)c1ccc2c3c(oc2c1)CCNC3 [Example 63, 7-(3-Trifluoromethylphenylsulfonyl)-1,2,3,4-tetrahydrobenzofuro[3,2-c]pyridine hydrochloride]
Ki (human 5-HT6 receptor; [1]): 2.1 nM
melting point: 290 to 294 °C

Structure (SMILES): Cl.O=S(=O)(c1ccccc1)c1ccc2c3c(oc2c1)CCNC3 [Example 60, 7-(Phenylsulfonyl)-1,2,3,4-tetrahydrobenzofuro[3,2-c]pyridine hydrochloride]
Ki (human 5-HT6 receptor; [1]): 9.8 nM
melting point: 235 to 238 °C

Structure (SMILES): Cl.O=S(=O)(c1cccc(C(F)(F)F)c1)c1ccc2oc3c(c2c1)C1CCC(C3)N1 (stereo not shown) [Example 55, 2-(3-Trifluoromethylphenyl)sulfonyl-6,7,8,9,10-pentahydro-7,10-epiminocyclohepta[b]benzofuran hydrochloride]
Ki (human 5-HT6 receptor; [1]): 53 nM
melting point: 296 to 298 °C

Structure (SMILES): Cl.Nc1ccc(S(=O)(=O)c2ccc3oc4c(c3c2)CNCC4)cc1 [Example 36, 8-(4-Aminophenylsulfonyl)-1,2,3,4-tetrahydrobenzofuro[3,2-c]pyridine hydrochloride]
Ki (human 5-HT6 receptor; [1]): 40 nM
melting point: 305 to 314 °C (dec.)

Structure (SMILES): COc1cc(Cc2ccccc2)cc2c3c(oc12)CCNC3.Cl [Example 96, 8-benzyl-6-methoxy-1,2,3,4-tetrahydrobenzofuro[3,2-c]pyridine hydrochloride]
Ki (human 5-HT6 receptor; [1]): 4.9 nM
melting point: 263 to 265 °C

Structure (SMILES): Cc1cn(S(=O)(=O)c2ccc3oc4c(c3c2)CNCC4)c2ccccc12.Cl [Example 43, 8-(3-Methyl-1H-indol-1-ylsulfonyl)-1,2,3,4-tetrahydrobenzofuro[3,2-c]pyridine hydrochloride]
Ki (human 5-HT6 receptor; [1]): 0.42 nM
melting point: 293 to 296 °C

Structure (SMILES): Cl.O=S(=O)(c1ccccc1)c1ccc2oc3c(c2c1)CNCCC3 [Example 69, 9-(Phenylsulfonyl)-2,3,4,5-tetrahydro-1H-benzofuro[3,2-c]azepine hydrochloride]
Ki (human 5-HT6 receptor; [1]): 571 nM
melting point: 211 to 216 °C

Structure (SMILES): Cl.O=S(=O)(c1ccc2oc3c(c2c1)CNCC3)n1ccc2ccccc21 [Example 41, 8-(1H-Indol-1-ylsulfonyl)-1,2,3,4-tetrahydrobenzofuro[3,2-c]pyridine hydrochloride]
Ki (human 5-HT6 receptor; [1]): 0.58 nM
melting point: 283 to 286 °C

Structure (SMILES): Cl.O=S(=O)(c1ccc2oc3c(c2c1)CNCC3)n1ccc2ccc(F)cc21 [Example 42, 8-(6-fluoro-1H-indol-1-ylsulfonyl)-1,2,3,4-tetrahydrobenzofuro[3,2-c]pyridine hydrochloride]
Ki (human 5-HT6 receptor; [1]): 1.5 nM
melting point: 199 to 203 °C

Structure (SMILES): Cl.O=S(=O)(c1cccc(F)c1)c1cc(Cl)c2oc3c(c2c1)CNCC3 [Example 47, 6-Chloro-8-(3-fluorophenylsulfonyl)-1,2,3,4-tetrahydrobenzofuro[3,2-c]pyridine hydrochloride]
Ki (human 5-HT6 receptor; [1]): 0.39 nM
melting point: 276 to 278 °C

Structure (SMILES): Cc1ccc(S(=O)(=O)c2ccc3oc4c(c3c2)CNCC4)cc1.Cl [Example 35, 8-(4-Methylphenylsulfonyl)-1,2,3,4-tetrahydrobenzofuro[3,2-c]pyridine hydrochloride]
Ki (human 5-HT6 receptor; [1]): 38 nM
melting point: 265 to 270 °C

Structure (SMILES): Cl.O=S(=O)(c1cccc(Cl)c1)c1ccc2oc3c(c2c1)C1CCC(C3)N1 (stereo not shown) [Example 56, 2-(3-Chlorophenyl)sulfonyl-6,7,8,9,10-pentahydro-7,10-epiminocyclohepta[b]benzofuran hydrochloride]
Ki (human 5-HT6 receptor; [1]): 31 nM
melting point: 285 to 288 °C

Structure (SMILES): Cl.O=S(=O)(c1ccc(F)cc1)c1ccc2oc3c(c2c1)CNCC3 [Example 31, 8-(4-Fluorophenylsulfonyl)-1,2,3,4-tetrahydrobenzofuro[3,2-c]pyridine hydrochloride]
Ki (human 5-HT6 receptor; [1]): 43 nM
melting point: 270 to 280 °C

Structure (SMILES): CC1CNCc2c1oc1c(Cl)cc(S(=O)(=O)c3ccccc3)cc21.Cl (stereo not shown) [Example 89, 6-chloro-4-methyl-8-(phenylsulfonyl)-1,2,3,4-tetrahydrobenzofuro[3,2-c]pyridine hydrochloride]
Ki (human 5-HT6 receptor; [1]): 110 nM
melting point: 291 to 292 °C (dec.)

Structure (SMILES): COc1cc(S(=O)(=O)c2ccccc2)cc2c3c(oc12)CCNC3.Cl [Example 54, 6-Methoxy-8-(phenylsulfonyl)-1,2,3,4-tetrahydrobenzofuro[3,2-c]pyridine hydrochloride]
Ki (human 5-HT6 receptor; [1]): 0.12 nM
melting point: 197 to 202 °C

Structure (SMILES): Cl.O=S(=O)(c1ccc2oc3c(c2c1)CNCC3)c1cccc2ccccc12 [Example 39, 8-(1-Naphthylsulfonyl)-1,2,3,4-tetrahydrobenzofuro[3,2-c]pyridine hydrochloride]
Ki (human 5-HT6 receptor; [1]): 5 nM
melting point: 200 to 202 °C

Structure (SMILES): CC1NCCc2oc3c(Cl)cc(S(=O)(=O)c4ccccc4)cc3c21.Cl (single isomer, unassigned; (+)) [Example 82a, (+)-6-chloro-1-methyl-8-(phenylsulfonyl)-1,2,3,4-tetrahydrobenzofuro[3,2-c]pyridine hydrochloride]
Ki (human 5-HT6 receptor; [2]): 56 nM
melting point: 295 °C (dec.)

Ki (human 5-HT6 receptor; [1]): 100 nM
melting point: 270 to 272 °C
Structure (SMILES): COc1ccc(S(=O)(=O)c2ccc3oc4c(c3c2)CNCC4)cc1.Cl [Example 33, 8-(4-Methoxyphenylsulfonyl)-1,2,3,4-tetrahydrobenzofuro[3,2-c]pyridine hydrochloride]

Structure (SMILES): Cl.O=S(=O)(c1cccc(Cl)c1)c1ccc2c3c(oc2c1)CC1CCC3N1 (stereo not shown) [Example 65, 3-(3-Chlorophenyl)sulfonyl-6,7,8,9,10-pentahydro-7,10-epiminocyclohepta[b]benzofuran hydrochloride]
Ki (human 5-HT6 receptor; [1]): 154 nM
melting point: 193 to 197 °C

Structure (SMILES): Cl.O=S(=O)(c1ccccc1)c1ccc2oc3c(c2c1)CNCC3 [Example 28, 8-(Phenylsulfonyl)-1,2,3,4-tetrahydrobenzofuro[3,2-c]pyridine hydrochloride]
Ki (human 5-HT6 receptor; [1]): 19 nM
melting point: 243 °C

Structure (SMILES): Cl.N#Cc1ccc(S(=O)(=O)c2ccc3oc4c(c3c2)CNCC4)cc1 [Example 34, 8-(4-Cyanophenylsulfonyl)-1,2,3,4-tetrahydrobenzofuro[3,2-c]pyridine hydrochloride]
Ki (human 5-HT6 receptor): 1320 nM
melting point: 295 to 301 °C (dec.)

Structure (SMILES): Cl.O=S(=O)(c1cccc(C(F)(F)F)c1)c1ccc2c3c(oc2c1)CC1CCC3N1 (stereo not shown) [Example 64, 3-(3-Trifluoromethylphenyl)sulfonyl-6,7,8,9,10-pentahydro-7,10-epiminocyclohepta[b]benzofuran hydrochloride]
Ki (human 5-HT6 receptor; [1]): 116 nM
melting point: 178 to 183 °C

From patent US9067949B2, “Benzofuro[3,2-c] pyridines and related analogs as serotonin sub-type 6 (5-HT6) modulators for the treatment of obesity, metabolic syndrome, cognition and schizophrenia” (Albany Molecular Research, Inc., priority 2011, dated 2015)
